Data set [1] deals with Mythimna separate (Walker). Briefly: Insecticidal activity against Mythimna separate (Walker). To be noted: Mythimna, 100 μg/mL; read-out: insecticidal activity, Mythimna separate (Walker). In kind it is in vivo.
In another data set the test system is Caenorhabditis elegans. Briefly: Insecticidal activity against Caenorhabditis elegans. In kind it is in vivo. To be noted: Caenorhabditis elegans, 100 μg/mL; read-out: insecticidal activity, Caenorhabditis elegans.
The subject of another data set is Ostrinia furnacalis. Briefly: Insecticidal activity against Ostrinia furnacalis. It is filed as in vivo. To be noted: Ostrinia furnacalis; 100 μg/mL; read-out: insecticidal activity, Ostrinia furnacalis.
The next data set has as its system Botrytis cinerea. Briefly: Fungicidal activity, fungicide growth rate method, BC. To be noted: Botrytis cinerea, read-out: fungicidal activity (growth inhibition rate), BC. It is filed as cell-based.
For another data set, the system named is Alternaria solani. Briefly: Fungicidal activity, fungicide growth rate method, AS. To be noted: Alternaria solani, read-out: fungicidal activity (growth inhibition rate), AS. In kind it is cell-based.
Data set [2] has as its system Phytophthora infestans (Mont.) de Bary. Briefly: microbe, parasite or virus in culture. To be noted: Phytophthora infestans, read-out: fungicidal activity (growth inhibition rate), PI, 50 μg/mL. It is filed as cell-based.
A further data set concerns Rhizoctonia cerealis. Briefly: Fungicidal activity, fungicide growth rate method, RC. It is filed as cell-based. To be noted: for inhibition at 50 µg/mL: Ceratobasidium cereale, read-out: fungicidal activity (growth inhibition rate), RC.
The test system of data set [3] is Helicoverpa armigera (Hübner). Briefly: Insecticidal activity against Helicoverpa armigera (Hübner). In kind it is in vivo. To be noted: Helicoverpa armigera; 100 μg/mL; read-out: insecticidal activity, Helicoverpa armigera (Hübner).
In data set [4] the test system is Apis mellifera ligustica Spin. To be noted: for Death number after 24 h / Death number after 48 h: per replicate of 10 bees.
The next data set relates to Cercospora arachidicola. Briefly: Fungicidal activity, fungicide growth rate method, CA. In kind it is cell-based. To be noted: Mycosphaerella arachidis, read-out: fungicidal activity (growth inhibition rate), CA.
In a further data set the test system is wheat Gibberella zeae. Briefly: microbe, parasite or virus in culture. It is filed as cell-based. To be noted: Fusarium graminearum, read-out: fungicidal activity (growth inhibition rate), GZ, 50 μg/mL.
The subject of the next data set is Pellicularia sasakii. Briefly: Fungicidal activity, fungicide growth rate method, PS. In kind it is cell-based. To be noted: read-out: fungicidal activity (growth inhibition rate), PS.
The test system of a further data set is Physalospora piricola. Briefly: Fungicidal activity, fungicide growth rate method, PP. It is filed as cell-based. To be noted: read-out: fungicidal activity (growth inhibition rate), PP.

Several values for one entry are separate records, joined by “and”; a condition that tells them apart may be missing. Equal values may be shown once. Read-outs that look alike come from different tables or passages of the source.

For the compound `O=C1CCC23CC=CCC12O3` (stereo not shown) [Zyj06-39], the pest or weed control at 100 µg/mL is 10% in [1], more than 30% in the data set with Caenorhabditis elegans, 0% in the data set on Ostrinia furnacalis and 0% in data set [3]. The inhibition at 50 µg/mL in the data set with Botrytis cinerea (50 μg/mL) was 36%; in the data set with Alternaria solani (50 μg/mL), more than 60%; in data set [2] it was 27%. Moreover, the “fungicidal activity (growth inhibition rate), RC” value with Rhizoctonia cerealis (50 μg/mL) is listed as 93%.
On to `C=CC[C@@H]1C[C@]2(OC(C)=O)C[C@@H](OC(C)=O)O[C@@]23C[C@H]2O[C@H]2C[C@H]13` [Zyj07-65-1], for which the pest or weed control at 100 µg/mL in data set [1] was 25%; in the data set with Caenorhabditis elegans it was 12%; in the data set with Ostrinia furnacalis, 5%; in data set [3], 10%. Moreover, the “Death rate after 48 h (%)” value in [4] (dosage 7.54 μg a.i./bee) and in data set [4] (dosage 18.1 μg a.i./bee) was 10.0% each time. Besides, the “Death number after 24 h” value in [4] (dosage 7.54 μg a.i./bee) was 0 and 1; in data set [4] (dosage 18.1 μg a.i./bee), 0 and 1. Also, the “Death number after 48 h” value in data set [4] (dosage 7.54 μg a.i./bee) was 0 and 2; in data set [4] (dosage 18.1 μg a.i./bee), 0 and 2.
As to `C=CC[C@@H]1C[C@]2(O)CCO[C@@]23CC=CC[C@H]13` [Zyj07-30], the pest or weed control at 100 µg/mL in data set [1] stood at 0%; with Caenorhabditis elegans it was 7%; with Ostrinia furnacalis, 0%; in [3], 0%. Moreover, the inhibition at 50 µg/mL in the data set with Cercospora arachidicola (50 μg/mL) is 14%; in the data set on wheat Gibberella zeae it was 3%; in the data set with Botrytis cinerea (50 μg/mL), 39%; with Pellicularia sasakii (50 μg/mL) it was 27%; with Alternaria solani (50 μg/mL), 0%; in [2] it was 15%. The values for the inhibition at 50 µg/mL in the data set with Rhizoctonia cerealis (50 μg/mL) and in the data set on Physalospora piricola (50 μg/mL) were 13% and 0%, respectively. Further, the “Death rate after 48 h (%)” value in data set [4] (dosage 9.77 μg a.i./bee) is on record as 15.0%; in data set [4] (dosage 19.8 μg a.i./bee) it was 5.0%. Further, the “Death number after 24 h” value in data set [4] (dosage 9.77 μg a.i./bee) and in [4] (dosage 19.8 μg a.i./bee) was 0 throughout. The “Death number after 48 h” value is 1 and 2 in data set [4] (dosage 9.77 μg a.i./bee); 1 and 0 in data set [4] (dosage 19.8 μg a.i./bee).
Turning to `C=CC[C@@H]1C[C@@]2(O)C[C@@H](CC=C)[C@H]3CC[C@@H](O)C[C@@]32O1` [Zyj07-69], the pest or weed control at 100 µg/mL in data set [1] came to 25%; in the data set with Caenorhabditis elegans, 10%; in the data set with Ostrinia furnacalis it was 10%; in data set [3] it was 15%. In addition, the “Death rate after 48 h (%)” value in [4] (dosage 9.71 μg a.i./bee) is reported as 5.0%. The “Death number after 24 h” value in [4] (dosage 9.71 μg a.i./bee) is 0. The “Death number after 48 h” value in [4] (dosage 9.71 μg a.i./bee) was 0 and 1.
Turning to `C=CCC1CC2(O)CC(CC=C)C3CC=CCC32O1` (racemic) [Zyj-7-98], in [4] (dosage 12.0 μg a.i./bee), the “Death rate after 48 h (%)” value is recorded as 0%, the “Death number after 24 h” value is listed as 0 and the “Death number after 48 h” value came out at 0.
Turning to `CCOC(=O)C1C(=O)O[C@]23CC=CC[C@@H]2[C@H](OOC(C)(C)C)C[C@]13O` (stereo partly shown) [Zyj06-127], the pest or weed control at 100 µg/mL in data set [1] was found to be 0%; in the data set on Caenorhabditis elegans, 7%; in the data set with Ostrinia furnacalis, 0%; in [3] it was 0%. Besides, the inhibition at 50 µg/mL with Cercospora arachidicola (50 μg/mL) came to 23%; in the data set on wheat Gibberella zeae, 36%; in the data set with Botrytis cinerea (50 μg/mL) it was 45%; in the data set on Pellicularia sasakii (50 μg/mL) it was 4%; with Alternaria solani (50 μg/mL), 7%; in data set [2] it was 2%. Moreover, the inhibition at 50 µg/mL with Rhizoctonia cerealis (50 μg/mL) was 40%; with Physalospora piricola (50 μg/mL) it was 5%. Besides, the “Death rate after 48 h (%)” value in [4] (dosage 5.40 μg a.i./bee) and in data set [4] (dosage 7.70 μg a.i./bee) was 0% throughout. The “Death number after 24 h” value in data set [4] (dosage 5.40 μg a.i./bee) and in [4] (dosage 7.70 μg a.i./bee) was 0 throughout. Also, the “Death number after 48 h” value in data set [4] (dosage 5.40 μg a.i./bee) and in data set [4] (dosage 7.70 μg a.i./bee) was 0 each time.
With `CCOC(=O)C(C(=O)OCC)C1C[C@]2(O)C(C(=O)OCC)C(=O)O[C@@]23CC=CC[C@H]13` (stereo partly shown) [Zyj06-113-3], the pest or weed control at 100 µg/mL in data set [1] came out at 0%; in the data set with Caenorhabditis elegans, 5%; with Ostrinia furnacalis it was 0%; in data set [3], 0%. Moreover, the inhibition at 50 µg/mL is more than 50% with Cercospora arachidicola (50 μg/mL); 43% in the data set with wheat Gibberella zeae; more than 50% with Botrytis cinerea (50 μg/mL); 11% with Pellicularia sasakii (50 μg/mL); 11% in data set [2]; 32% in the data set with Rhizoctonia cerealis (50 μg/mL). Also, the “Death rate after 48 h (%)” value in [4] (dosage 9.87 μg a.i./bee) is 0%; in [4] (dosage 15.2 μg a.i./bee) it was 10.0%. For the same compound, the “Death number after 24 h” value in data set [4] (dosage 9.87 μg a.i./bee) and in data set [4] (dosage 15.2 μg a.i./bee) was 0 throughout. Moreover, the figures for the “Death number after 48 h” value in [4] (dosage 9.87 μg a.i./bee) and in data set [4] (dosage 15.2 μg a.i./bee) were 0 and 1, respectively.
`C=CC[C@@H]1CC(=O)[C@@]2(O)CC=CC[C@H]12` [Zyj06-177]: the pest or weed control at 100 µg/mL (in data set [1]; with Ostrinia furnacalis; in data set [3]) was 0% throughout. In addition, the inhibition at 50 µg/mL came to 46% in the data set with Cercospora arachidicola (50 μg/mL); 0% in the data set with wheat Gibberella zeae; 48% in the data set on Botrytis cinerea (50 μg/mL); 19% in the data set with Pellicularia sasakii (50 μg/mL); 12% in the data set with Alternaria solani (50 μg/mL); 11% in data set [2]. Also, the inhibition at 50 µg/mL with Rhizoctonia cerealis (50 μg/mL) was 61%; with Physalospora piricola (50 μg/mL), 11%. The “Death rate after 48 h (%)” value in data set [4] (dosage 8.17 μg a.i./bee) and in data set [4] (dosage 9.46 μg a.i./bee) was 0% throughout. The “Death number after 24 h” value in data set [4] (dosage 8.17 μg a.i./bee) and in [4] (dosage 9.46 μg a.i./bee) was 0 throughout. Besides, the “Death number after 48 h” value in data set [4] (dosage 8.17 μg a.i./bee) and in [4] (dosage 9.46 μg a.i./bee) was 0 each time.
As to `C[Si](C)(C)O[C@]12CC=CC[C@@H]1C=CC2=O` [Zyj06-82], the pest or weed control at 100 µg/mL in data set [1] came out at 25%; with Caenorhabditis elegans it was 8%; in the data set on Ostrinia furnacalis it was 5%; in [3] it was 5%. In addition, the inhibition at 50 µg/mL in the data set with Cercospora arachidicola was 24%; in the data set on wheat Gibberella zeae, 0%; with Botrytis cinerea, more than 50%; with Pellicularia sasakii it was 23%; in the data set with Alternaria solani, 14%; in data set [2] it was 16%. Besides, the inhibition at 50 µg/mL with Rhizoctonia cerealis came out at 43%; in the data set on Physalospora piricola, 40%.
On to `C=CC[C@@H]1C[C@@]2(OC(C)=O)C[C@@H](CC=C)[C@H]3CC=CC[C@@]32O1` [Zyj07-38], for which the pest or weed control at 100 µg/mL in [1] was 15%; with Caenorhabditis elegans it was more than 30%; with Ostrinia furnacalis, 5%; in data set [3], 10%. For the same compound, the inhibition at 50 µg/mL with Cercospora arachidicola (50 μg/mL) was more than 50%.
Regarding `C=CC[C@@H]1C[C@]2(O)CC(=O)O[C@@]23C[C@@H](Cl)[C@H](O)C[C@H]13` [Zyj07-14], the pest or weed control at 100 µg/mL in the data set with Caenorhabditis elegans is 20%. Moreover, the inhibition at 50 µg/mL in the data set on Cercospora arachidicola (50 μg/mL) is 31%; with wheat Gibberella zeae, 43%; with Botrytis cinerea (50 μg/mL) it was more than 50%; with Pellicularia sasakii (50 μg/mL), 15%; in the data set with Alternaria solani (50 μg/mL), 15%; in data set [2], 2%. Also, the inhibition at 50 µg/mL in the data set on Rhizoctonia cerealis (50 μg/mL) worked out at 51%; in the data set with Physalospora piricola (50 μg/mL), 31%.
In the case of `O=C1C[C@@]2(O)CC[C@H]3C[C@@H](O)[C@@H](Cl)C[C@@]32O1` [Zyj07-103], the pest or weed control at 100 µg/mL is more than 30% in [1], 10% in the data set on Ostrinia furnacalis and 15% in data set [3]. Also, the inhibition at 50 µg/mL in the data set on Cercospora arachidicola (50 μg/mL) came out at 38%; in the data set on wheat Gibberella zeae it was 47%; with Botrytis cinerea (50 μg/mL), 27%; in the data set on Pellicularia sasakii (50 μg/mL), 0%; in [2], 42%; in the data set on Rhizoctonia cerealis (50 μg/mL), 4%. In addition, the inhibition at 50 µg/mL in the data set on Physalospora piricola (50 μg/mL) is more than 50%.

The record behind these values is patent US11716992B2, “5A5B6C tricyclic spirolactone derivative, preparation method therefor and use thereof” (NANKAI UNIVERSITY, priority 2017, dated 2023).
